Results: EP1894572B1, “THERAPEUTIC AGENT AND/OR PROPHYLACTIC AGENT FOR NEUROGENIC PAIN” (Asahi Kasei Pharma Corporation, priority 2005, dated 2013)
Read-outs that look alike come from different tables or passages of the source. Positions of bridges follow the written chain, without caps; N, C: chain ends. Non-standard residues stand in square brackets, D forms with d. Residues, ends and D or L forms follow the SMILES beside them. Asu = N[C@@H](CCCCCC(=O)O)C(=O)O

Experiments:
[1] = rat, in vivo
[2] = rat, in vivo; remark: listed apart in the source
Protocol: Using normal rats (each 4 rats) which were in the same week old in initiation of administration of elcatonin as in Examples 1 and 2, dose of elcatonin not varying serum calcium value was examed in the case of single subcutaneous administration (administered over 10 seconds). […] Further, the same test was conducted excepting that blood collection was carried out 30 minutes after the administration. Measurement of serum calcium value was conducted using calcium C-test wako (Wako).

[3] = rat, in vivo; remark: listed apart in the source
[4] = cited from earlier work
[5] = tested on: chronic constriction injury model (CCI model); test: CCI model, Randall Selitto method, intravenous continuous drip; assay type: in vivo, rat; conditions: neuropathic pain; after effect once manifested
Protocol: Preparing of the CCI model and elcatonin administration initiation period were the same as in Example 1. A cannulation was performed on cervical vein, and on 2nd day after cannulation, elcatonin (0.75 U/kg/week) was administered by intravenous continuous drip at 1 mL/body/24 hours, and withdrawal pressure by Randall Slitto method was measured 4, 8, 12 and 24 hours after.

[6] = human, in vivo
[7] = Blood retention time after intermittent administration; assay type: in vivo
Protocol: From Comparative Example 1 described later, it has been considered that an analgesic action by intermittent administration of calcitonin is affected by accumulation of an effect in each administration. The blood retention time by intermittent administration is about 2 hours. Therefore, also included in the range of the present invention is an administration method in which continuous administration of 2 hours or more and less than 8 hours is repeated and accumulated duration of continuous administration within 24 hours is 8 hours or more.

For `CC(C)C[C@H](NC(=O)[C@H](CCCCN)NC(=O)CNC(=O)[C@H](CC(C)C)NC(=O)[C@@H](NC(=O)[C@@H]1CCCCCC(=O)N[C@@H](CO)C(=O)N[C@@H](CC(N)=O)C(=O)N[C@@H](CC(C)C)C(=O)N[C@@H](CO)C(=O)N[C@@H]([C@@H](C)O)C(=O)N1)C(C)C)C(=O)N[C@@H](CO)C(=O)N[C@@H](CCC(N)=O)C(=O)N[C@@H](CCC(=O)O)C(=O)N[C@@H](CC(C)C)C(=O)N[C@@H](Cc1c[nH]cn1)C(=O)N[C@@H](CCCCN)C(=O)N[C@@H](CC(C)C)C(=O)N[C@@H](CCC(N)=O)C(=O)N[C@H](C(=O)N[C@@H](Cc1ccc(O)cc1)C(=O)N1CCC[C@H]1C(=O)N[C@@H](CCCNC(=N)N)C(=O)N[C@H](C(=O)N[C@@H](CC(=O)O)C(=O)N[C@H](C(=O)NCC(=O)N[C@@H](C)C(=O)NCC(=O)N[C@H](C(=O)N1CCC[C@H]1C(N)=O)[C@@H](C)O)C(C)C)[C@@H](C)O)[C@@H](C)O` [elcatonin, 1-butylic acid-7-(L-2-aminobutylic acid)-26-L-aspartic acid-27-L-valine-29-L-alaninecalcitonin] (SNLST[Asu]VLGKLSQELHKLQTYPRTDVGAGTP-NH2; lactam N-6), which body weight [1] is on record?
The body weight was “no change in body weight was found”.

And the body weight increase [1]?
Its body weight increase is “suppression of body weight increase became remarkable”.

What about the “serum calcium at effective dose on neuropathic pain in intermittent administration” value [2] of the same compound?
Its value is “lowered to normal value (8.5 to 10.5 mg/dl) or less”.

What about the “serum calcium value relative to normal value” ([2]; sc) of the same compound?
Its value is “below a normal value”.

What about the serum calcium concentration [3] of the same compound?
The serum calcium concentration was “did not affect serum calcium amount at all”.

What does the source list for calcitonin?
serum calcium ([4]; bone metastasis cancer patient, s.c. 400 U/man/day mixed into morphine continuous administration): a significant decrease in serum calcium is recognized; serum calcium ([4]; renal osteopathy patient, drip intravenous 40 U/man/5 hours): no significant decrease in serum calcium is recognized; continuation of analgesic effect during the drug withdrawal period [5]: continues for at least one week; calcitonin dose altering serum calcium values in humans [6]: 0.093 mU/kg/second; blood retention time [7]: about 2 hours
